Data on eleven molecules can be found in patent US20210130352A1, “OGA INHIBITOR COMPOUNDS” (Janssen Pharmaceutica NV, priority 2018, published 2021).

By melting point is commonly meant the temperature, or range, at which the solid turns liquid. For the molecule `CN(C)C(=O)Cn1ccc2c(Nc3c(Cl)cccc3Cl)nccc21` [Co. No. 5], the melting point is 215.7 °C.
On to `Cc1cc(C(F)(F)F)cc(C)c1Nc1nccc2c1ccn2CC(=O)N(C)C` [Co. No. 18], for which the melting point stood at 214.46 °C.
As to `CN(C)C(=O)Cn1ccc2c(Nc3c(Cl)cccc3OC(F)(F)F)nccc21` [Co. No. 24], the melting point worked out at 200.76 °C.
`COc1nccc(C)c1Nc1nccc2c1ccn2CC(=O)N(C)C` [Co. No. 4] showed a melting point of 221.78 °C.
On to `Cc1cc(C(F)(F)F)cc(C(C)C)c1Nc1nccc2c1ccn2CC(=O)N(C)C` [Co. No. 6], for which the melting point came out at 228.29 °C.
In the case of `CC(C)c1cc(OC(F)(F)F)cc(Cl)c1Nc1nccc2c1ccn2CC(=O)N(C)C` [Co. No. 27], the melting point was 69.34 °C.
With `Cc1cncc(Cl)c1Nc1nccc2c1ccn2CC(=O)N1CCC1` [Co. No. 12], the melting point amounted to 211.88 °C.
Consider `CN(C)C(=O)Cn1ccc2c(Nc3c(F)cccc3Cl)nccc21` [Co. No. 23], for which the melting point stood at 202.75 °C.
The molecule `Cc1cccc(C(F)(F)F)c1Nc1nccc2c1ccn2CC(=O)N(C)C` [Co. No. 21] showed a melting point of 187.16 °C.
As to `Cc1cccc(Cl)c1Nc1nccc2c1ccn2CC(=O)N(C)C` [Co. No. 22], the melting point is 211.1 °C.
`Cc1ccc2c(ccn2C)c1Nc1nccc2c1ccn2CC(=O)N(C)C` [Co. No. 2] yielded a melting point of 251.73 °C.
